Data set [1] deals with Staphylococcus aureus ATCC 25923 (Reference, basal). Nature of the data set: MIC, broth microdilution (CLSI). Type of data set: cell-based. The conditions noted are these: ATCC25923. On the technique in general: In broth dilution the organism is exposed to a series of concentrations in liquid medium.
Data set [2] has as its system SA 1199 (Wild‐type, basal). The data set is described as follows: MIC, broth microdilution (CLSI). The format is cell-based. Conditions: Staphylococcus aureus.
Data set [3] relates to SA 1199‐B (norA overexpressing). The data set is described as follows: microbe, parasite or virus in culture. The format is cell-based, Staphylococcus aureus. The conditions noted are these: Staphylococcus aureus.
The subject of another data set is SA‐K1758 (∆norA). The data set is described as follows: microbe, parasite or virus in culture. Type of data set: cell-based. Conditions: Staphylococcus aureus.
Data set [4] can be described thus: Solution‐state stability test in MH‐II broth. Type of data set: physicochemical. Conditions: 512–1 µg mL^−1, 37 °C for a day, centrifuged. The procedure:
Before accessing the minimal inhibitory concentration (MIC), each phenazinium derivative was subjected to a solution‐state stability test. For this experiment, each derivative was solubilized in DMSO to achieve a primary stock solution (20 mg mL^−1). This stock was further diluted in MilliQ to achieve a working stock solution (10 mg mL^−1). […] The tubes were placed in an incubator at 37 °C for a day and later centrifuged at 25 000 rpm for 25 min.

In the next data set the test system is S. aureus strains. Conditions: cited from earlier work. Further: key: S: Susceptible; R: Resistant; I: Intermediate.
The next data set relates to S. epidermidis strains. The arrangement: method as in earlier work. Conditions: cited from earlier work.

Converted amounts (≈) assume the structure as drawn. “Also recorded” adds a separate entry of the source. Like-named read-outs stand apart in the source and are kept apart here.
Wherever Susceptibility profile is given: key: S: Susceptible; R: Resistant; I: Intermediate.

As for `CCCCNc1ccc2nc3cc(NCCC)c(N)cc3[n+](CCC)c2c1` [5a1], the MIC in data set [1] was 1 µg/mL; in data set [2], 1 µg/mL; in data set [3], 2 µg/mL; in the data set on SA‐K1758 (∆norA) it was 0.5 µg/mL. Besides, the “Solution state stability (concentration at which visible precipitation was observed)” value (from here on “Solution state stability”) in data set [4] is “Visible precipitation was observed at 128 µg mL^−1 and beyond”.

For `CCCCNc1ccc2nc3cc(NCCCC)c(N)cc3[n+](CCC)c2c1` [5a2], the MIC in data set [1] stood at 1 µg/mL; in data set [2] it was 1 µg/mL; in data set [3], 2 µg/mL; in the data set with SA‐K1758 (∆norA), 0.25 µg/mL. Besides, the “Solution state stability” value in data set [4] is “Visible precipitation was observed at 512 µg mL^−1 and beyond”.

Regarding `CCCCCCCCNc1cc2nc3ccc(NCCCC)cc3[n+](CCC)c2cc1N` [5a3], the MIC in data set [1] worked out at 64 µg/mL; in data set [2], 64 µg/mL; in data set [3], 64 µg/mL; in the data set with SA‐K1758 (∆norA), 8 µg/mL. The “Solution state stability” value in data set [4] is “Visible precipitation was observed at 128 µg mL^−1 and beyond”.

`CCCCCCCCNc1cc2nc3ccc(NCCCC)cc3[n+](CCCCCCCC)c2cc1N` [5b3]: the MIC (in data set [1]; in data set [2]; against SA‐K1758 (∆norA)) was 32 µg/mL in each case. Moreover, the “Solution state stability” value in data set [4] was “Visible precipitation was observed at 128 µg mL^−1 and beyond”.

As for `CCCCCCCC[n+]1c2cc(NCCCC)ccc2nc2cc(NCCOC)c(N)cc21` [5b4], the MIC came to 1 µg/mL in data set [1], 1 µg/mL in data set [2], 1 µg/mL in data set [3] and 2 µg/mL in the data set on SA‐K1758 (∆norA). Moreover, in data set [4], the “Solution state stability” value is “excellent solubility and stability; also recorded: Stable”.

Consider `CCCCNc1cc2nc3ccc(NCCC)cc3[n+](CCC)c2cc1N` [5c1], for which the MIC is 2 µg/mL in data set [1], 2 µg/mL in data set [2], 2 µg/mL in data set [3] and 0.5 µg/mL against SA‐K1758 (∆norA). Further, the “Solution state stability” value in data set [4] is on record as “Stable”.

As to `CCCNc1ccc2nc3cc(NCCOC)c(N)cc3[n+](CCC)c2c1` [5c2], the MIC in data set [1] came to 4 µg/mL; in data set [2], 8 µg/mL; in data set [3], 8 µg/mL; in the data set with SA‐K1758 (∆norA) it was 4 µg/mL. The “Solution state stability” value in data set [4] is “excellent solubility and stability; also recorded: Stable”.

With `CCCCNc1ccc2nc3cc(NCCC)c(N)cc3[n+](CCCC)c2c1` [5d1], the MIC in data set [1] came to 16 µg/mL; in data set [2], 16 µg/mL; in data set [3], 16 µg/mL; against SA‐K1758 (∆norA), 8 µg/mL. Also, the “Solution state stability” value in data set [4] is “Visible precipitation was observed at 128 µg mL^−1 and beyond”.

For `CCCCNc1ccc2nc3cc(NCCCC)c(N)cc3[n+](CCCC)c2c1` [5d2], the MIC was 1 µg/mL in data set [1], 1 µg/mL in data set [2], 0.5 to 1 µg/mL in data set [3] and 0.5 µg/mL in the data set with SA‐K1758 (∆norA). Further, the “Solution state stability” value in data set [4] was “Visible precipitation was observed at 512 µg mL^−1 and beyond”.

`CCCCCCCCNc1ccc2nc3cc(NCCC)c(N)cc3[n+](CCCCCCCC)c2c1` [5e1]: the MIC came out at 16 µg/mL in data set [1], 16 µg/mL in data set [2], 16 µg/mL in data set [3] and 8 µg/mL with SA‐K1758 (∆norA). Moreover, in data set [4], the “Solution state stability” value is given as “Visible precipitation was observed at 128 µg mL^−1”.

In the case of `CCCCCCCCNc1ccc2nc3cc(NC(C)(C)C)c(N)cc3[n+](CCCCCCCC)c2c1` [5e2], the MIC (in data set [1]; in data set [2]; in data set [3]; in the data set on SA‐K1758 (∆norA)) was 8 µg/mL each time. The “Solution state stability” value in data set [4] is listed as “Stable”.

In the case of `CCCCCCCCNc1ccc2nc3cc(NCCCCCCCC)c(N)cc3[n+](CCCCCCCC)c2c1` [5e3], the MIC in data set [1] is 32 µg/mL; in data set [2], 64 µg/mL; in data set [3], 64 µg/mL; against SA‐K1758 (∆norA), 64 µg/mL. Moreover, the “Solution state stability” value in data set [4] is listed as “Visible precipitation was observed at 128 µg mL^−1”.

In the case of `O=C(O)c1cn(C2CC2)c2cc(N3CCNCC3)c(F)cc2c1=O` [CIP, Ciprofloxacin], the Susceptibility profile entry in the data set on S. aureus strains (strain ATCC25923, ref [4]) is “I”; in the data set with S. aureus strains (strain ATCC25923_EtBr, ref [4]) it was “I”; in the data set on S. aureus strains (strain SA-1199, ref [2]), “S”; in the data set on S. aureus strains (strain SA-1199B, ref [2]), “R”; with S. aureus strains (strain SA-K1712, ref [3]), “S”; in the data set on S. aureus strains (strain SA-K1748, ref [3]), “R”. The Susceptibility profile result is on record as “S” in the data set with S. aureus strains (strain SA-K1758, ref [2]); “S” in the data set on S. aureus strains (strain SA-K2068, ref [3]); “I” in the data set on S. epidermidis strains.

In the case of `CCn1cc(C(=O)O)c(=O)c2cc(F)c(N3CCNCC3)cc21` [NOR, norfloxacin, reference compound], the MIC amounted to 2 µg/mL (≈ 6.26 µM) in data set [1]; 2 µg/mL (≈ 6.26 µM) in data set [2] (SA 1199 (Wild‐type, basal), read-out: MIC); 32 µg/mL (≈ 100 µM) in data set [3]; 0.25 µg/mL (≈ 0.783 µM) in the data set with SA‐K1758 (∆norA).

(Values after PMC12023841, “Unlocking the Gates: A Novel Diagnostic Molecule for Quantifying Efflux Levels in Gram‐Positive Bacteria” (Advanced Healthcare Materials, 2025).)
